The source of these data is patent publication US20240091228A1, “Uridine Phosphorylase Inhibitors to Prevent or Treat Drug-Induced Pulmonary Dysfunction” (Tosk, Inc., priority 2021, published 2024).

Data set [1] is described as follows: side effects of TK-112690.
Data set [2] concerns plasma uridine. Description: plasma uridine vs plasma Compound 1 concentration after continuous sc osmotic-pump infusion to mice. It counts as in vivo. As to conditions: BDF-1 male mice, constant-rate sc infusion 667, 833 or 3000 mg/kg/day. How it is done:
Because uridine is cleared so rapidly, with an elimination half-life (t1/2) only a few minutes,^13 and the elimination t1/2 of Compound 1 in mice is only 1-2 hours, it is very challenging to measure uridine concentrations elevations post discrete doses of Compound I, such as used for ip dosing. For this reason, continuous infusion of Compound 1 (TK-112690) to BDF-1 t mice was administered via sc implanted osmotic pumps, and the uridine plasma concentration was measured. Solutions of Compound 1 were prepared at a concentration of 500 mg/mL in sterile PBS. Osmotic pumps (ALZET® micro-osmotic pump 2001D and 1003D, Alza Co) were loaded with 200 μL. (2001D osmotic pump) and/or 100 μL (1003D osmotic pump) of Compound 1 solution.
BDF-1 male mice (n=6) were treated with a constant-rate infusion of 667, 833 or 3000 mg/kg/day doses of Compound 1 delivered via subcutaneously implanted osmotic pumps. Animals were anesthetized with 100 mg/kg ketamine prior to pump implantation. Surgical scissors were used to make an approximately 1 cm incision on the dorsal surface near the shoulder blade of animals. A hemostat was used to carve out a subcutaneous tunnel toward the anterior end of animal. Osmotic pumps were placed inside the subcutaneous tunnel. Incision was sealed with wound clips.
Blood collections were performed on animals anesthetized with ketamine (ip 100 mg/kg). Blood samples from animals treated with a constant-rate infusion of TK-112690 were collected at 72 hours for 667 mg/kg/day and 833 mg/kg/day, and 24 hours for 3000 mg/kg/day after pump implantation. Whole blood (˜0.8 mL) was drawn through the retro-orbital sinus using a heparin coated micro-hematocrit tubes and collected into EDTA microtainer tubes. Blood samples were transferred into fresh 1.5 mL microcentrifuge tubes and centrifuged for 10 minutes at 14,000×g using an Eppendorf Minispin Plus stored in a 4° C. refrigerator. Exactly 0.4 mL of plasma was transferred into fresh microcentrifuge tubes containing 2 μL of 10 mM 5-FU and vortexed at highest setting for approximately 5 seconds. […]

Data set [3] relates to UPase. As to conditions: cited from earlier work.
In data set [4] the test system is chemotherapy-induced mucositis. Description: mitigation of chemotherapy-induced mucositis. As to conditions: in vivo.
A short description of data set [5]: elimination half-life of Compound 1 in mice. As to conditions: mouse, in vivo, read-out: elimination t1/2.
In data set [6] the test system is hepatic fibrosis. The data set is described as follows: animal model of hepatic fibrosis. As to conditions: summary statement. It counts as in vivo.
Data set [7] deals with bleomycin-induced pulmonary fibrosis. The data set is described as follows: bleomycin-induced pulmonary fibrosis study in mice, lung histology (Masson's trichrome, Ashcroft grading). It counts as in vivo. As to conditions: for lower fibrosis (histology score) than mice treated with the dosing vehicle / statistical significance of the fibrosis decrease vs dosing vehicle: C57BL/6 male mice, bleomycin OA day 0, 60 mg/kg IP BID days 7 through 20; for statistical significance of the fibrosis decrease vs dosing vehicle: SPSS. From the text: FIG. 2. Figure is a chart providing histology scores for pulmonary tissue from mice treated with bleomycin (a well characterized lung toxin) and either dosing vehicle, uridine, or TK-112690. Thirty-three C57BL/6 male mice, 10-14 weeks old at study initiation, were acclimatized for least 3 days. The mouse has been selected as is referenced in the literature as a representative species of choice for this experimental animal model. During acclimation and throughout the entire study duration, animals were housed within a limited access rodent facility and kept in groups of a maximum of 4 mice per cage. Mice were housed in polypropylene cages with solid bottoms and wood shavings or corn cobb as bedding material. Animals were provided ad libitum with a commercial rodent diet and had free access to drinking water that is supplied to each cage via polyethylene bottles. The automatically controlled environmental conditions was set to maintain temperature at 20-26° C. with a relative humidity (RH) of 30-70%, a 12:12 hour light: dark cycle, and 10-15 air changes/hour in the study room. Animals were given a unique animal identification tail mark as a means of identification. This number also appeared on a cage card, which was visible on the front of each cage. The cage card also contained the study and group numbers, route of administration, gender, study director, and arrival date.
Animals were randomly assigned to cages upon arrival. Animals were assigned to treatment groups prior to treatment initiation. At study termination, surviving animals were weighed prior to euthanasia. Euthanasia was performed via anesthesia overdose and exsanguination.
The Table below lists the experimental group(s) comprising the study.
Disease Induction. 75 uL of Bleomycin (section 4.5.) was administered on day 0 via oropharyngeal aspiration (OA). The mice were anesthetized via isoflurane/oxygen and suspended by their cranial incisors on a thin wire from an angled stand. The tongue was gently held from the mouth using blunt forceps to visualize the base of the tongue and the pharynx. Bleomycin/saline suspension was pipetted onto posterior pharynx. Nostrils were held gently closed, Respiration was monitored to ensure the suspension is fully aspirated.
Treatment. Groups 3 and 4 were treated via intraperitoneal (IP) injection at a dosing volume of 10 ml/kg twice daily, 6-8 hours between doses, from days 7 through 20.
Observations and Examinations. Clinical signs, humane endpoints, and palliative care were monitored, as follows: changes in skin, fur, eyes, mucus membranes, occurrence of secretions and excretions, autonomic activity, gait, posture, response to handling, abnormal behavior, tremors, convulsions, sleep and coma, labored breathing, and adventitious lung sounds.
The bleomycin administration induced a severe pulmonary inflammation resulting in lethargy, dehydration, and death of diseased animals. Animals in all diseased groups were given fresh diet gel daily beginning on Day 7 and through the remainder of the study. Body weight measurements were performed 3× weekly starting on Day 0 and throughout the rest of the study.
Termination: BALF and tissue collection. Animals were euthanized via isoflurane overdose. Following euthanasia an angiocatheter was inserted into the trachea. […]
Histology. […] Disease severity and collagen levels were assessed by the Ashcroft fibrosis grading system.
The resulting data were analyzed by SPSS, version 20.

The conditions of data set [8]: in vivo; cited from earlier work.

As for `Cc1cn2c(nc1=O)O[C@H]1[C@H](O)[C@@H](CO)O[C@H]12` [TK-112690], in data set [1], the side effects entry is given as “no known side effects”. For the same molecule, in data set [2], the “effect on plasma uridine” value is on record as “elevate plasma uridine in a linear fashion”; the “intercept of regression line, plasma uridine concentration vs plasma Compound 1 concentration” value was 0.051; the “slope of regression line, plasma uridine concentration vs plasma Compound 1 concentration” value turned out to be 0.010. Besides, the UPase inhibitor result in data set [3] was “authentic UPase inhibitor”. For the same molecule, the “efficacy as an agent to mitigate chemotherapy-induced mucositis” value in data set [4] is “proven efficacy”. In addition, the half-life in data set [5] is 1 to 2 h. Further, the “protection in animal model of hepatic fibrosis” value in data set [6] is reported as “protects”. In addition, in data set [7], the “lower fibrosis (histology score) than mice treated with the dosing vehicle” value is 30% and the “statistical significance of the fibrosis decrease vs dosing vehicle” value is given as “statistically significant”. Besides, the “protection in bleomycin-induced animal model of pulmonary fibrosis” value in data set [7] (summary statement) was “protects”.

`O=c1ccn([C@@H]2O[C@H](CO)[C@@H](O)[C@H]2O)c(=O)[nH]1` [uridine]: in data set [8], the “elimination half-life (t1/2)” value is on record as “a few minutes”. For the same molecule, in data set [7], the “lower fibrosis (histology score) than mice treated with the dosing vehicle” value is 7% and the “statistical significance of the fibrosis decrease vs dosing vehicle” value is recorded as “not statistically significant”.
